Reference: paper PMC4721142, “Randomized controlled studies on the efficacy of antiarthritic agents in inhibiting cartilage degeneration and pain associated with progression of osteoarthritis in the rat” (Arthritis Research & Therapy, 2016)

Legend:
RAW 264.7 cells = assay: RANKL-mediated osteoclastogenesis / matrix resorption (Osteologic) assay; assay type: cell-based, murine; settings: for minimal effective concentration: Mus musculus, RAW264.7, 168 h, read-out: Lowest inhibitory concentration, matrix resorption
How it was run: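 Agents were tested during or after differentiation. Wells were bleached and resorption pits were quantified by image analysis versus RANKL-only controls, using an unpaired t-test.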

[1] = Comparison of in vitro screens: overlapping effective and nontoxic range; settings: for Overlapping effective and nontoxic range: inhibits with minimal or no toxicity to synovium or cartilage, overlapping range if effective in more than one assay;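 for all read-outs here: compares non-toxic ranges in synovial cells and chondrocytes with effective ranges against NFkB, MMP-13 and osteoclasts, giving their overlap as the predicted efficacy range in uM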
MIA rat model of OA = assay: MIA trial 3 digital Randall-Selitto test (weekly i.a. clonidine 4.5 μg, tacrolimus 30 ng, fluocinolone 15 ng, meloxicam 100 μg, tranilast 500 ng, TH 150 μg; clonidine 100 μg/kg s.c.); assay type: in vivo
Description: The digital Randall-Selitto (dRS) test is said to be a reliable and repeatable measure of neuropathic, bone, and inflammatory pain behavior in several different models, including those of arthritic or joint pain [29, 31, 32]. Baseline and posttreatment values were evaluated using a dRS test device (IITC Life Science, Woodland Hills, CA, USA). Animals were allowed to acclimate to the testing room before all experimentation and for a minimum of 30 minutes before testing. To ensure that their hind limbs were accessible, the animals were gently suspended in a restraint sling. The joint compression threshold was measured once at each time point for the ipsilateral and contralateral knee joints. Pressure was applied gradually over approximately 10 seconds to the medial and lateral aspects of the knee joint. Measurements were taken from the first observed behavior of vocalization, struggle, or withdrawal. A cutoff value of 600 g was used to prevent injury to the animal.
Following isoflurane anesthesia, 50 μl (2 mg) of MIA was injected into the synovial space of the left knee. Animals were randomly assigned to groups, and pain behavior was assessed 7, 14, 21, and 28 days following MIA injection and intervention using WB with the Stoelting incapacitance meter (trial 1) or the dRS test (trials 2 and 3). […] Animals received MIA treatment and then saline control or therapeutic. […] Histopathology was performed at each time point and at study termination. All studies were conducted in accordance with the International Association for the Study of Pain Guidelines and were approved by the Algos Therapeutics, Inc. Institutional Animal Care and Use Committee (IACUC) before initiation. Those running the studies were blind to the treatments. See Additional file 1 for further details. […]
struggle or withdrawal. A cut-off value of 600 g was used to prevent injury to the animal. The mean and standard error of the mean (SEM) were determined for each treatment group.
Statistical significance was assigned as p ≤ 0.05. The stability of the vehicle group over time was assessed on each testing day (Days 7, 14, 21, and 28) using repeated measures one-way analysis of variance (ANOVA) comparing joint compression thresholds at each experimental time point on a given testing day versus that testing day’s pre-treatment value. Osteoarthritis-related pain in the vehicle group was estimated at each time point on each testing day by comparing ipsilateral (injured) to contralateral (normal) joint compression thresholds using paired t-tests. The progression of osteoarthritis-related pain in the vehicle group was estimated by comparing pre-treatment joint compression thresholds on each testing day versus pre-MIA measurements using repeated measures one-way ANOVA. […]
thresholds at each experimental time point on a given testing day with vehicle treated animals using an unpaired t-test. The acute effect of Tacrolimus was analyzed by comparing joint compression thresholds at each time point on a given testing day with the corresponding pre-treatment baseline values using repeated measures one-way ANOVA and compared to vehicle treated animals using […]
values using repeated measures one-way ANOVA. Chronic effects were analyzed by comparing pre-treatment joint compression thresholds on each testing day versus the appropriate Day 7 pre-treatment values using repeated measures one-way ANOVA and by comparing pre-treatment joint compression thresholds with vehicle treated animals on each testing day using an unpaired t-test or one-way ANOVA. Day 7 pre-treatment joint compression thresholds between all groups were assessed using one-way ANOVA. The Dunnett’s multiple comparison post hoc test was used when […]
dosing were housed three per cage. Animals had free access to food and water and were maintained […]
The animal colony was maintained at approximately 21 °C. All experiments were conducted in accordance with the International Association for the Study of Pain Guidelines.

[2] = published half-life; cited from earlier work
[3] = tested on: Normal human articular chondrocytes; assay: Cytotoxicity to chondrogenic pellets (CellTiter-Blue)
Description: Differentiated chondrogenic pellets were used both to test the ability of drugs to block MMP-13 activity and to test for drug toxicity. […] Supernatants were collected and analyzed for MMP-13 using an enzyme-linked immunosorbent assay (GE Healthcare Life Sciences, Little Chalfont, UK). Cytotoxicity to pellets was assessed using CellTiter-Blue (Promega).

SW982 = assay: Synovial toxicity (CellTiter-Glo), with or without TNF-α
Description: Viability was measured with the CellTiter-Glo luminescent viability assay (Promega). […] To more accurately predict the effects of the drugs on osteoarthritic synovium, cells were tested with or without TNF-α (20 ng/ml; BioSource).
In Vitro Toxicity Testing with a Synovial Cell Line
Compounds were tested for synovial toxicity using SW982 cells alone or in the presence of TNF as

## Clc1cccc(Cl)c1N=C1NCCN1 [Clonidine]
RAW 264.7 cells
  Lowest inhibitory concentration, matrix resorption: 10 µM
[1]
  Overlapping effective and nontoxic range: 10 to 100 µM
MIA rat model of OA; day 7
  dRS, hours after dosing with significant difference: 1 h
[2]
  t 1/2: α2-Receptor agonist and antihypertensive agent Possible induction of iNOS through NF-κB [77] t 1/2 = 6–20 h
[3]
  Non-toxic range (Chondrocyte): 0.156 to 100 µM
SW982
  Non-toxic range (Synovial): 1.56 to 100 µM

## COc1cc(/C=C/C(=O)CC(=O)/C=C/c2ccc(O)c(OC)c2)ccc1O [Curcumin, Diferuloylmethane]
[2]
  t 1/2 intestinal: 10 min
  t 1/2 plasma: 30 to 50 min
[3]
  Non-toxic range (Chondrocyte): 0.84 to 27 µM
SW982
  Non-toxic range (Synovial): 1.7 to 54 µM

## CC1(C)O[C@@H]2C[C@H]3[C@@H]4C[C@H](F)C5=CC(=O)C=C[C@]5(C)[C@@]4(F)[C@@H](O)C[C@]3(C)[C@]2(C(=O)CO)O1 [Fluocinolone, Fluocinolone Acetonide]
RAW 264.7 cells
  Effective range against Osteoclasts: ≥ 9.77 nM
  minimal effective concentration: 0.00977 µM
[1]
  Non-toxic & predicted range of efficacy: 3.1 to 250 µM
  Overlapping effective and nontoxic range: 3.1 to 100 µM
MIA rat model of OA; day 7
  dRS, hours after dosing with significant difference: 1 h
MIA rat model of OA; day 28, negative = worse
  dRS, hours after dosing with significant difference: -24 h
[2]
  t 1/2: Corticosteroid (potent) Blocks IL-1 and TNF production and TNF-induced apoptosis [92] t 1/2 = 1.3 – 1.7 h
[3]
  Non-toxic range (Chondrocyte): 1.56 to 250 µM
SW982
  Non-toxic range (Synovial): 1.56 to 100 µM

## C=CC[C@@H]1/C=C(\C)C[C@H](C)C[C@H](OC)[C@H]2O[C@@](O)(C(=O)C(=O)N3CCCC[C@H]3C(=O)O[C@H](/C(C)=C/[C@@H]3CC[C@@H](O)[C@H](OC)C3)[C@H](C)[C@@H](O)CC1=O)[C@H](C)C[C@@H]2OC [Tacrolimus]
RAW 264.7 cells
  minimal effective concentration: 0.0026 µM
[1]
  Non-toxic & predicted range of efficacy: 25 to 50 µM
  Overlapping effective and nontoxic range: 50 µM
[3]
  Non-toxic range (Chondrocyte): 0.8 to 50 µM
SW982
  Non-toxic range (Synovial): 1.5 to 100 µM

## COc1ccc(C=CC(=O)Nc2ccccc2C(=O)O)cc1OC [Tranilast, N-(3′,4′-dimethoxycinnamoyl)anthranilic acid]
RAW 264.7 cells
  minimal effective concentration: 0.5 µM
[1]
  Non-toxic & predicted range of efficacy: 1 to 8 µM
  Overlapping effective and nontoxic range: 1 to 8 µM
MIA rat model of OA; day 14
  dRS, hours after dosing with significant difference: 1 h
MIA rat model of OA; day 21
  dRS, hours after dosing with significant difference: 1 h
[2]
  t 1/2: Anti-inflammatory and analgesic properties in collagen-induced arthritis (RA model) [34]. Suppresses COX-2 and iNOS expression, reduces PGE2 and iNOS-derived NO production in stimulated macrophages. Diminishes TNF-α and IL-1β production [35]. T1/2 = 7.4 h
[3]
  Non-toxic range (Chondrocyte): 125000 to 8e+06 µM
SW982
  Non-toxic range (Synovial): 0.125 to 8 µM

## CC(C)(C)CC(=O)OCC(=O)[C@@]12OC(C)(C)O[C@@H]1C[C@H]1[C@@H]3CCC4=CC(=O)C=C[C@]4(C)[C@@]3(F)[C@@H](O)C[C@@]12C [Triamcinolone hexacetonide]
RAW 264.7 cells
  minimal effective concentration: 0.297 µM
[1]
  Overlapping effective and nontoxic range: 62.5 to 3750 µM
MIA rat model of OA; day 7
  dRS, hours after dosing with significant difference: 3 h
MIA rat model of OA; day 14
  dRS, hours after dosing with significant difference: 1 h
MIA rat model of OA; day 21
  dRS, hours after dosing with significant difference: Pretrt^f
MIA rat model of OA; day 28, negative = worse
  dRS, hours after dosing with significant difference: -24 h
[2]
  t 1/2: Steroid t 1/2 = 88 min
SW982
  Non-toxic range (Synovial): 3.12 to 400 µM

## CC1=C(CO)C(=O)O[C@@H]([C@@H](C)[C@H]2CC[C@H]3[C@@H]4C[C@H]5O[C@]56[C@@H](O)C=CC(=O)[C@]6(C)[C@H]4CC[C@]23C)C1 [Withaferin A]
RAW 264.7 cells
  minimal effective concentration: 0.53 µM
[1]
  Non-toxic & predicted range of efficacy: 0.27 to 2.1 µM
  Overlapping effective and nontoxic range: 4.25 to 17 µM
[2]
  t 1/2: Reportedly inhibits NF-κB activation by preventing the TNF-α-induced activation of IKK-β (IKK-2) [102] Blocks osteoclastogenesis of bone remodeling [103] t 1/2 = 1.36 h
[3]
  Non-toxic range (Chondrocyte): 0.27 to 2.1 µM
SW982
  Non-toxic range (Synovial): Toxic
